From publication PMC7753147, “High-throughput determination of protein affinities using unmodified peptide libraries in nanomolar scale” (iScience, 2020)

How the values were obtained:
gephE = assay: µSPOT peptide microarray binding assay with recombinant gephE
FL-geph = assay: µSPOT peptide microarray binding assay with full-length geph
native geph = assay: µSPOT peptide microarray binding assay with native geph from mouse brain lysate
[1] = µSPOT full positional scan of GlyRβ 15-mer DLRSNDFSIVGSLPR, intensity normalised to wild-type sequence (= 1)
[2] = µSPOT full positional scan of GlyRβ 15-mer DLRSNDFSIVGSLPR, native geph, intensity normalised to wild-type sequence (= 1)
[3] = µSPOT peptide microarray, GlyRβ full positional scan, recombinant gephE, intensity normalised to wild-type sequence DLRSNDFSIVGSLPR (=1)
[4] = µSPOT peptide microarray, GlyRβ full positional scan, intensity normalised to wild-type sequence DLRSNDFSIVGSLPR (=1)
[5] = µSPOT peptide microarray, GlyRβ full positional scan, native geph from mouse brain lysate, intensity normalised to wild-type sequence DLRSNDFSIVGSLPR (=1)

| Sequence | gephE Binding Intensity [norm.] (gephE; [1]) | Fl-geph Binding Intensity [norm.] (FL-geph; [1]) | Native geph Binding Intensity [norm.] (native geph; [2]) | gephE Binding Intensity [norm.] (gephE; [3]) | Fl-geph Binding Intensity [norm.] (FL-geph; [4]) | Native geph Binding Intensity [norm.] (native geph; [5]) |
| --- | --- | --- | --- | --- | --- | --- |
| DLRSNDFSIVGSLPH [GlyRβ_Full_Positional_Scan_293] | 0.96 | 1.05 | 0.92 | – | – | – |
| DLRSLDFSIVGSLPR [GlyRβ_Full_Positional_Scan_084] | – | – | – | 0.92 | 0.86 | 0.69 |
| DLRSNDFSIVGSLTR [GlyRβ_Full_Positional_Scan_276] | 0.74 | 0.96 | 0.49 | – | – | – |
| DLRSNDFSIKGSLPR [GlyRβ_Full_Positional_Scan_194, GlyR β 414-428 variant V423K] | – | – | – | 0.5 | 0.63 | 0.16 |
| DLQSNDFSIVGSLPR [GlyRβ_Full_Positional_Scan_060] | – | – | – | 0.91 | 1.06 | 1.3 |
| FLRSNDFSIVGSLPR [GlyRβ_Full_Positional_Scan_007] | – | – | – | 0.96 | 1.03 | 0.77 |
| DLRSNDFSIWGSLPR [GlyRβ_Full_Positional_Scan_188, GlyR β 414-428 variant V423W] | – | – | – | 0.68 | 0.62 | 0.27 |
| ELRSNDFSIVGSLPR [GlyRβ_Full_Positional_Scan_011] | – | – | – | 1.1 | 0.94 | 0.97 |
| DLRSNDFSIVGFLPR [GlyRβ_Full_Positional_Scan_227] | 0.64 | 0.88 | 0.37 | – | – | – |
| DLRSNDFSIEGSLPR [GlyRβ_Full_Positional_Scan_191, GlyR β 414-428 variant V423E] | – | – | – | 0.58 | 0.69 | 0.53 |
| DLRSNDFSIVGLLPR [GlyRβ_Full_Positional_Scan_224] | 0.62 | 1.01 | 0.44 | – | – | – |
| DLTSNDFSIVGSLPR [GlyRβ_Full_Positional_Scan_056] | – | – | – | 0.96 | 1.18 | 1.38 |
| DLRSNDFSIVMSLPR [GlyRβ_Full_Positional_Scan_218, GlyR β 414-428 variant G424M] | 0.36 | 0.33 | 0.17 | – | – | – |
| DLNSNDFSIVGSLPR [GlyRβ_Full_Positional_Scan_059] | – | – | – | 0.85 | 1.17 | 1.28 |
| DLRSSDFSIVGSLPR [GlyRβ_Full_Positional_Scan_095] | – | – | – | 0.99 | 0.95 | 0.85 |
| DLRSNDFKIVGSLPR [GlyRβ_Full_Positional_Scan_154, GlyR β 414-428 variant S421K] | – | – | – | 0.65 | 0.92 | 0.24 |
| DLRSNDFSIVKSLPR [GlyRβ_Full_Positional_Scan_214, GlyR β 414-428 variant G424K] | 0.5 | 0.44 | 0.17 | – | – | – |

| Sequence | gephE Binding Intensity [norm.] (gephE; [1]) | Fl-geph Binding Intensity [norm.] (FL-geph; [1]) | Native geph Binding Intensity [norm.] (native geph; [2]) | gephE Binding Intensity [norm.] (gephE; [3]) | Fl-geph Binding Intensity [norm.] (FL-geph; [4]) | Native geph Binding Intensity [norm.] (native geph; [5]) |
| --- | --- | --- | --- | --- | --- | --- |
| DLRSKDFSIVGSLPR [GlyRβ_Full_Positional_Scan_094] | – | – | – | 0.92 | 0.79 | 0.66 |
| DERSNDFSIVGSLPR [GlyRβ_Full_Positional_Scan_031] | – | – | – | 0.98 | 1.01 | 0.92 |
| DLRSNDFSDVGSLPR [GlyRβ_Full_Positional_Scan_170, GlyR β 414-428 variant I422D] | – | – | – | 0.29 | 0.29 | 0.17 |
| DLRSNDFSIVGGLPR [GlyRβ_Full_Positional_Scan_222] | 0.75 | 0.99 | 0.86 | – | – | – |
| DLRSNDFSISGSLPR [GlyRβ_Full_Positional_Scan_195, GlyR β 414-428 variant V423S] | – | – | – | 0.41 | 0.64 | 0.3 |
| ILRSNDFSIVGSLPR [GlyRβ_Full_Positional_Scan_003] | – | – | – | 1.15 | 1.09 | 0.86 |
| DLRSNDFDIVGSLPR [GlyRβ_Full_Positional_Scan_150, GlyR β 414-428 variant S421D] | – | – | – | 0.53 | 0.9 | 0.29 |
| DLRRNDFSIVGSLPR [GlyRβ_Full_Positional_Scan_072] | – | – | – | 0.97 | 1.06 | 1.25 |
| DLGSNDFSIVGSLPR [GlyRβ_Full_Positional_Scan_042] | – | – | – | 0.93 | 1.02 | 1.26 |
| DLRSRDFSIVGSLPR [GlyRβ_Full_Positional_Scan_092] | – | – | – | 0.89 | 0.77 | 0.62 |
| DLRSNFFSIVGSLPR [GlyRβ_Full_Positional_Scan_107] | – | – | – | 0.74 | 0.78 | 0.34 |
| DLRSNDFSEVGSLPR [GlyRβ_Full_Positional_Scan_171, GlyR β 414-428 variant I422E] | – | – | – | 0.24 | 0.25 | 0.13 |
| DLRSNDFSIVGSLFR [GlyRβ_Full_Positional_Scan_267] | 0.71 | 0.78 | 0.28 | – | – | – |
| DLRSPDFSIVGSLPR [GlyRβ_Full_Positional_Scan_085] | – | – | – | 0.95 | 0.85 | 0.86 |
| DLRSNDFSIDGSLPR [GlyRβ_Full_Positional_Scan_190, GlyR β 414-428 variant V423D] | – | – | – | 0.46 | 0.35 | 0.28 |
| DLESNDFSIVGSLPR [GlyRβ_Full_Positional_Scan_051] | – | – | – | 1.03 | 1.39 | 1.3 |
